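Where inhibition never reached the appropriate level, the endpoint shown equals the highest concentration tested. Otherwise, values were interpolated linearly from a five-concentration, 48-hour dose response in 96-well plates. The concentration for 50% growth inhibition is given as GI50. TGI denotes the concentration required for complete inhibition of growth.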
Columns and labels:
Experiment in all cases: NCI tumour cell line growth inhibition, 48 h
NCI-H522 lung = test system: NCI-H522 lung
SF-268 CNS = test system: SF-268 CNS
A549 NSCLC = test system: A549 NSCLC
P388 leukemia = test system: P388 leukemia
SN12C renal = test system: SN12C renal
MCF7 breast = test system: MCF7 breast
SNB-75 CNS = test system: SNB-75 CNS
LOX IMVI melanoma = test system: LOX IMVI melanoma
OVCAR-3 ovarian = test system: OVCAR-3 ovarian
NCI/ADR-RES ovarian = test system: NCI/ADR-RES ovarian
MALME-3M melanoma = test system: MALME-3M melanoma
HOP-62 NSCLC = test system: HOP-62 NSCLC
UACC-257 melanoma = test system: UACC-257 melanoma
HL-60(TB) leukemia = test system: HL-60(TB) leukemia
U251 CNS = test system: U251 CNS
SK-OV-3 ovarian = test system: SK-OV-3 ovarian
NCI-H226 lung = test system: NCI-H226 lung
DMS 114 small cell lung = test system: DMS 114 small cell lung
MOLT-4 leukemia = test system: MOLT-4 leukemia
CAKI-1 renal = test system: CAKI-1 renal
HOP-92 NSCLC = test system: HOP-92 NSCLC
M19-MEL melanoma = test system: M19-MEL melanoma
NCI-H23 lung = test system: NCI-H23 lung
HCT-116 colon = test system: HCT-116 colon
SK-MEL-5 melanoma = test system: SK-MEL-5 melanoma
SNB-78 CNS = test system: SNB-78 CNS
SNB-19 CNS = test system: SNB-19 CNS
KM20L2 colon = test system: KM20L2 colon
SF-295 CNS = test system: SF-295 CNS
NCI-H460 lung = test system: NCI-H460 lung
CCRF-CEM leukemia = test system: CCRF-CEM leukemia
SF-539 CNS = test system: SF-539 CNS
OVCAR-4 ovarian = test system: OVCAR-4 ovarian
EKVX NSCLC = test system: EKVX NSCLC
HOP-18 NSCLC = test system: HOP-18 NSCLC
RXF 393 renal = test system: RXF 393 renal
DLD-1 colon = test system: DLD-1 colon
HCC-2998 colon = test system: HCC-2998 colon
RPMI-8226 leukemia = test system: RPMI-8226 leukemia
HT29 colon = test system: HT29 colon
K-562 leukemia = test system: K-562 leukemia
P388/ADR leukemia = test system: P388/ADR leukemia
KM12 colon = test system: KM12 colon
SW-620 colon = test system: SW-620 colon
COLO 205 colon = test system: COLO 205 colon
A498 renal = test system: A498 renal
HCT-15 colon = test system: HCT-15 colon
UO-31 renal = test system: UO-31 renal
SK-MEL-28 melanoma = test system: SK-MEL-28 melanoma
UACC-62 melanoma = test system: UACC-62 melanoma
SN12K1 renal = test system: SN12K1 renal
SK-MEL-2 melanoma = test system: SK-MEL-2 melanoma
DMS 273 small cell lung = test system: DMS 273 small cell lung
OVCAR-8 ovarian = test system: OVCAR-8 ovarian
OVCAR-5 ovarian = test system: OVCAR-5 ovarian
IGROV1 ovarian = test system: IGROV1 ovarian

## Cc1ncc(CO)c(C=NCCCCCCN=Cc2c(CO)cnc(C)c2[O-])c1[O-].[Cu+2]
NCI-H522 lung
  TGI: > 100 µM
SF-268 CNS
  TGI: > 100 µM
A549 NSCLC
  TGI: > 100 µM
P388 leukemia
  GI50: 18.9 µM
  TGI: 94.2 µM
SN12C renal
  TGI: > 100 µM
MCF7 breast
  TGI: > 100 µM
SNB-75 CNS
  TGI: > 100 µM
LOX IMVI melanoma
  TGI: > 94.3 µM
OVCAR-3 ovarian
  TGI: > 100 µM
NCI/ADR-RES ovarian
  TGI: > 100 µM
MALME-3M melanoma
  TGI: > 100 µM
HOP-62 NSCLC
  TGI: > 100 µM
UACC-257 melanoma
  TGI: > 100 µM
HL-60(TB) leukemia
  TGI: > 100 µM
U251 CNS
  TGI: > 70.9 µM
SK-OV-3 ovarian
  TGI: > 100 µM
NCI-H226 lung
  TGI: > 100 µM
DMS 114 small cell lung
  GI50: > 47.7 µM
  TGI: > 77.6 µM
MOLT-4 leukemia
  TGI: > 100 µM
CAKI-1 renal
  TGI: > 100 µM
HOP-92 NSCLC
  TGI: > 87.9 µM
M19-MEL melanoma
  GI50: 28.6 µM
  TGI: > 31.6 µM
NCI-H23 lung
  TGI: > 100 µM
HCT-116 colon
  TGI: > 100 µM
SK-MEL-5 melanoma
  TGI: > 79.1 µM
SNB-78 CNS
  GI50: 41.3 µM
  TGI: > 100 µM
SNB-19 CNS
  TGI: > 100 µM
KM20L2 colon
  GI50: > 83.9 µM
  TGI: > 100 µM
SF-295 CNS
  TGI: > 100 µM
NCI-H460 lung
  TGI: > 100 µM
CCRF-CEM leukemia
  TGI: > 31.6 µM
SF-539 CNS
  TGI: > 100 µM
OVCAR-4 ovarian
  TGI: > 100 µM
EKVX NSCLC
  TGI: > 100 µM
HOP-18 NSCLC
  GI50: > 100 µM
  TGI: > 100 µM
RXF 393 renal
  TGI: > 100 µM
DLD-1 colon
  GI50: > 82.9 µM
  TGI: > 100 µM
HCC-2998 colon
  TGI: > 100 µM
RPMI-8226 leukemia
  TGI: > 100 µM
HT29 colon
  TGI: > 100 µM
K-562 leukemia
  TGI: > 100 µM
P388/ADR leukemia
  GI50: 25.7 µM
  TGI: > 100 µM
KM12 colon
  TGI: > 100 µM
SW-620 colon
  TGI: > 100 µM
COLO 205 colon
  TGI: > 100 µM
A498 renal
  TGI: > 100 µM
HCT-15 colon
  TGI: > 100 µM
UO-31 renal
  TGI: > 100 µM
SK-MEL-28 melanoma
  TGI: > 100 µM
UACC-62 melanoma
  TGI: > 100 µM
SN12K1 renal
  GI50: > 100 µM
  TGI: > 100 µM
SK-MEL-2 melanoma
  TGI: > 100 µM
DMS 273 small cell lung
  GI50: > 66.9 µM
  TGI: > 100 µM
OVCAR-8 ovarian
  TGI: > 100 µM
OVCAR-5 ovarian
  TGI: > 100 µM
IGROV1 ovarian
  TGI: > 100 µM

From PubChem BioAssay (NCI)
